Test results published in PubChem BioAssay (NCI).
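Exposure lasted 48 hours, with cells grown in 96-well plates and compounds tested at five concentrations. Here, GI50 denotes the concentration required for 50% inhibition of growth. TGI: total growth inhibition.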

Assays:
Test in all cases: inhibition of tumour cell growth, NCI panel, 48 h
[1] = test system: OVCAR-3 ovarian
[2] = test system: TK-10 renal
[3] = test system: UACC-257 melanoma
[4] = test system: CAKI-1 renal
[5] = test system: SNB-19 CNS
[6] = test system: PC-3 prostate
[7] = test system: SF-268 CNS
[8] = test system: OVCAR-5 ovarian
[9] = test system: ACHN renal
[10] = test system: IGROV1 ovarian
[11] = test system: NCI-H226 lung
[12] = test system: NCI/ADR-RES ovarian
[13] = test system: UO-31 renal
[14] = test system: SK-MEL-5 melanoma
[15] = test system: MCF7 breast
[16] = test system: MALME-3M melanoma
[17] = test system: DU-145 prostate
[18] = test system: SW-620 colon
[19] = test system: 786-0 renal
[20] = test system: BT-549 breast
[21] = test system: HS 578T breast
[22] = test system: HCT-116 colon
[23] = test system: NCI-H522 lung
[24] = test system: SK-MEL-2 melanoma
[25] = test system: HOP-92 NSCLC
[26] = test system: U251 CNS
[27] = test system: SK-OV-3 ovarian
[28] = test system: SNB-75 CNS
[29] = test system: SF-295 CNS
[30] = test system: COLO 205 colon
[31] = test system: OVCAR-8 ovarian
[32] = test system: A549 NSCLC
[33] = test system: KM12 colon
[34] = test system: HT29 colon
[35] = test system: HL-60(TB) leukemia
[36] = test system: HCT-15 colon
[37] = test system: MDA-MB-435
[38] = test system: NCI-H460 lung
[39] = test system: SF-539 CNS
[40] = test system: OVCAR-4 ovarian
[41] = test system: HOP-62 NSCLC
[42] = test system: HCC-2998 colon
[43] = test system: SK-MEL-28 melanoma
[44] = test system: MOLT-4 leukemia
[45] = test system: UACC-62 melanoma
[46] = test system: T-47D breast
[47] = test system: A498 renal
[48] = test system: CCRF-CEM leukemia
[49] = test system: SN12C renal
[50] = test system: LOX IMVI melanoma
[51] = test system: MDA-MB-231 breast
[52] = test system: EKVX NSCLC
[53] = test system: RXF 393 renal
[54] = test system: SR leukemia
[55] = test system: NCI-H23 lung
[56] = test system: M14 melanoma
[57] = test system: RPMI-8226 leukemia
[58] = test system: K-562 leukemia

Cn1c2c(c3ccc([N+](=O)[O-])cc3c1=O)C(=O)c1ccccc1-2
GI50 [1]: 52.6 µM | TGI [1]: > 100 µM | GI50 [2]: > 100 µM | TGI [2]: > 100 µM | GI50 [3]: > 100 µM | TGI [3]: > 100 µM | GI50 [4]: 80.5 µM | TGI [4]: > 100 µM | GI50 [5]: > 100 µM | TGI [5]: > 100 µM | GI50 [6]: > 100 µM | TGI [6]: > 100 µM | GI50 [7]: > 100 µM | TGI [7]: > 100 µM | GI50 [8]: > 100 µM | TGI [8]: > 100 µM | GI50 [9]: > 100 µM | TGI [9]: > 100 µM | GI50 [10]: > 100 µM | TGI [10]: > 100 µM | GI50 [11]: > 100 µM | TGI [11]: > 100 µM | GI50 [12]: > 100 µM | TGI [12]: > 100 µM | GI50 [13]: > 100 µM | TGI [13]: > 100 µM | GI50 [14]: > 100 µM | TGI [14]: > 100 µM | GI50 [15]: > 100 µM | TGI [15]: > 100 µM | GI50 [16]: 70.3 µM | TGI [16]: > 100 µM | GI50 [17]: > 100 µM | TGI [17]: > 100 µM | GI50 [18]: > 100 µM | TGI [18]: > 100 µM | GI50 [19]: > 100 µM | TGI [19]: > 100 µM | GI50 [20]: > 100 µM | TGI [20]: > 100 µM | GI50 [21]: > 100 µM | TGI [21]: > 100 µM | GI50 [22]: > 100 µM | TGI [22]: > 100 µM | GI50 [23]: > 100 µM | TGI [23]: > 100 µM | GI50 [24]: > 100 µM | TGI [24]: > 100 µM | GI50 [25]: > 100 µM | TGI [25]: > 100 µM | GI50 [26]: > 100 µM | TGI [26]: > 100 µM | GI50 [27]: > 100 µM | TGI [27]: > 100 µM | GI50 [28]: > 100 µM | TGI [28]: > 100 µM | GI50 [29]: 22.7 µM | TGI [29]: > 100 µM | GI50 [30]: > 100 µM | TGI [30]: > 100 µM | GI50 [31]: > 100 µM | TGI [31]: > 100 µM | GI50 [32]: > 100 µM | TGI [32]: > 100 µM | GI50 [33]: > 100 µM | TGI [33]: > 100 µM | GI50 [34]: > 100 µM | TGI [34]: > 100 µM | GI50 [35]: > 100 µM | TGI [35]: > 100 µM | GI50 [36]: > 100 µM | TGI [36]: > 100 µM | GI50 [37]: 47.4 µM | TGI [37]: > 100 µM | GI50 [38]: > 100 µM | TGI [38]: > 100 µM | GI50 [39]: > 100 µM | TGI [39]: > 100 µM | GI50 [40]: > 100 µM | TGI [40]: > 100 µM | GI50 [41]: > 100 µM | TGI [41]: > 100 µM | GI50 [42]: > 100 µM | TGI [42]: > 100 µM | GI50 [43]: > 100 µM | TGI [43]: > 100 µM | GI50 [44]: > 100 µM | TGI [44]: > 100 µM | GI50 [45]: > 100 µM | TGI [45]: > 100 µM | GI50 [46]: > 100 µM | TGI [46]: > 100 µM | GI50 [47]: > 100 µM | TGI [47]: > 100 µM | GI50 [48]: > 100 µM | TGI [48]: > 100 µM | GI50 [49]: > 100 µM | TGI [49]: > 100 µM | GI50 [50]: > 100 µM | TGI [50]: > 100 µM | GI50 [51]: > 100 µM | TGI [51]: > 100 µM | GI50 [52]: > 100 µM | TGI [52]: > 100 µM

CS(=O)(=O)CCc1cccc(C(=O)c2cnn(-c3ccc(F)cc3)c2N)c1
GI50 [53]: > 25 µM | TGI [53]: > 25 µM | GI50 [1]: > 25 µM | TGI [1]: > 25 µM | GI50 [54]: > 25 µM | TGI [54]: > 25 µM | GI50 [2]: > 25 µM | TGI [2]: > 25 µM | GI50 [3]: > 25 µM | TGI [3]: > 25 µM | GI50 [4]: > 25 µM | TGI [4]: > 25 µM | GI50 [5]: > 25 µM | TGI [5]: > 25 µM | GI50 [6]: > 25 µM | TGI [6]: > 25 µM | GI50 [7]: > 25 µM | TGI [7]: > 25 µM | GI50 [8]: > 25 µM | TGI [8]: > 25 µM | GI50 [9]: > 25 µM | TGI [9]: > 25 µM | GI50 [10]: > 25 µM | TGI [10]: > 25 µM | GI50 [11]: > 25 µM | TGI [11]: > 25 µM | GI50 [12]: > 25 µM | TGI [12]: > 25 µM | GI50 [13]: > 25 µM | TGI [13]: > 25 µM | GI50 [14]: > 25 µM | TGI [14]: > 25 µM | GI50 [15]: > 25 µM | TGI [15]: > 25 µM | GI50 [16]: > 25 µM | TGI [16]: > 25 µM | GI50 [55]: > 25 µM | TGI [55]: > 25 µM | GI50 [17]: > 25 µM | TGI [17]: > 25 µM | GI50 [18]: > 25 µM | TGI [18]: > 25 µM | GI50 [19]: > 25 µM | TGI [19]: > 25 µM | GI50 [20]: > 25 µM | TGI [20]: > 25 µM | GI50 [21]: > 25 µM | TGI [21]: > 25 µM | GI50 [22]: > 25 µM | TGI [22]: > 25 µM | GI50 [23]: > 25 µM | TGI [23]: > 25 µM | GI50 [24]: > 25 µM | TGI [24]: > 25 µM | GI50 [25]: > 25 µM | TGI [25]: > 25 µM | GI50 [26]: > 25 µM | TGI [26]: > 25 µM | GI50 [56]: > 25 µM | TGI [56]: > 25 µM | GI50 [27]: > 25 µM | TGI [27]: > 25 µM | GI50 [28]: > 25 µM | TGI [28]: > 25 µM | GI50 [29]: > 25 µM | TGI [29]: > 25 µM | GI50 [30]: > 25 µM | TGI [30]: > 25 µM | GI50 [31]: > 25 µM | TGI [31]: > 25 µM | GI50 [32]: > 25 µM | TGI [32]: > 25 µM | GI50 [33]: > 25 µM | TGI [33]: > 25 µM | GI50 [34]: > 25 µM | TGI [34]: > 25 µM | GI50 [35]: > 9.84 µM | TGI [35]: > 23.8 µM | GI50 [36]: > 25 µM | TGI [36]: > 25 µM | GI50 [37]: > 25 µM | TGI [37]: > 25 µM | GI50 [38]: > 25 µM | TGI [38]: > 25 µM | GI50 [57]: > 25 µM | TGI [57]: > 25 µM | GI50 [39]: > 25 µM | TGI [39]: > 25 µM | GI50 [58]: > 25 µM | TGI [58]: > 25 µM | GI50 [40]: > 25 µM | TGI [40]: > 25 µM | GI50 [41]: > 25 µM | TGI [41]: > 25 µM | GI50 [42]: > 25 µM | TGI [42]: > 25 µM | GI50 [43]: > 25 µM | TGI [43]: > 25 µM | GI50 [44]: > 18 µM | TGI [44]: > 25 µM | GI50 [45]: > 25 µM | TGI [45]: > 25 µM | GI50 [46]: > 25 µM | TGI [46]: > 25 µM | GI50 [47]: > 25 µM | TGI [47]: > 25 µM | GI50 [48]: > 25 µM | TGI [48]: > 25 µM | GI50 [49]: > 25 µM | TGI [49]: > 25 µM | GI50 [50]: > 25 µM | TGI [50]: > 25 µM | GI50 [51]: > 25 µM | TGI [51]: > 25 µM
